Measured values published in patent US9061012B2, “Uses of DGAT1 inhibitors” (Novartis AG, priority 2010, dated 2015).

How the values were obtained:
STZ rats = test: Plasma triglycerides after Intralipid in a model of severe hypertriglyceridemia (STZ, high fat diet); assay type: in vivo, rat (male Sprague Dawley); settings: for Plasma TG at 2 hrs / Plasma TG at 4 hrs: 10 mpk oral gavage 30 min before Intralipid 10 ml/kg; for Plasma TG at 2 hrs: 2 hrs post-Intralipid; for Plasma TG at 2 hrs / Plasma TG at 4 hrs / Pre-dose TG: mean ± SEM; for Plasma TG at 4 hrs / Plasma TGs at 4 hrs compared between groups: 4 hrs post-Intralipid; for Pre-dose TG: baseline immediately before dosing, 6 h fasted, group later given 10 mpk oral, n=10/group
Description: Male Sprague Dawley (SD) rats at 12 wks of age were studied. Orlistat (04139-100MG) and Streptozotocin (S0130-1G) were purchased from Sigma (St. Louis, Mo.).
Compounds were suspended in vehicle (0.5% methyl cellulose with 0.1% Tween-80) to achieve a dosing volume of 4 ml/kg and dosing concentration of 10 mpk for both compound 1 and orlistat (Sigma, St. Louis, Mo.).
Two weeks into consuming a 60% high fat diet, animals were treated with a 40 mpk dose of streptozotocin (STZ given intravenously (iv) in 10 mM sodium citrate in normal saline, pH=4.5). Nine days later, animals were assigned to three experimental groups (vehicle, compound 1 at 10 mpk, or orlistat at 10 mpk) on the basis of 6 hr fasted TG concentrations (n=10/group). On the morning of the study, 14 days after animals were placed in experimental groups, animals were fasted for 6 hours, after which studies commenced at 1100 hr with baseline blood collected by tail nick into ethylenediaminetetraacetic acid-lined tubes (Sarstedt, Nümbrecht, Germany).
The baseline blood sample (80 μl) was collected immediately prior to administering compounds. Rats were orally gavaged with drug or vehicle (4 ml/kg) beginning at 1100 hrs. Thirty minutes later, Intralipid was orally gavaged at 10 ml/kg to all rats, representing t=0 hr. At 2 and 4 hrs post-Intralipid, tail nick blood samples were taken to assess plasma TGs.
Blood samples remained on ice following collection for no longer than 30 min prior to centrifugation (10 min, 4° C., 1000 g) and resulting plasma was aliquoted for plasma TG analysis.
Plasma TGs (triglycerides) (corrected for glycerol) were compared on an absolute basis, as a percent change from baseline (% TGs), and as area above baseline over 0-4 hours (AABtg0-4-h) using the Trapezoidal rule. Percent change from baseline was calculated as follows: % change from baseline=([TGs] at 2 or 4 hrs)−([TGs] at baseline)*100 [TGs] at baseline Statistical Analyses
Data are reported as means±SEM. One-way ANOVA (analysis of variance) assessed between-group differences when any comparisons that were not time-dependent were made (body weight, pre-study plasma TGs, AABtg0-4-h). To assess that the Intralipid bolus produced a significant increase in plasma TGs in the vehicle group, a repeated measures (RM) one-way ANOVA was used with Tukey's posthoc test applied to compare plasma parameter means at 2 and 4 hrs vs. pre-treatment concentrations. RM two-way ANOVA was used to assess the significance of the treatment-by-time interaction for plasma parameters (TGs and % TGs) followed by Bonferroni's t-test to compare differences among the groups. Outliers were determined using the Grubb's Test for Outliers. Significance was set at P≦0.05.

Triton rat = test: Plasma triglycerides after Intralipid and Triton WR-1339 in a model of impaired triglyceride clearance; assay type: in vivo, rat (male Sprague Dawley); settings: for Plasma TG at 90 min: 90 min after Triton WR-1339 100 mg/kg i.v.; for Plasma TG at 90 min / Plasma TG at 120 min / Pre-Triton TG: compound 1 at 10 mg/kg by gavage, mean ± SEM; for Plasma TG at 120 min: 120 min after Triton WR-1339 100 mg/kg i.v.; for Pre-Triton TG: before Triton WR-1339, Intralipid 10 mL/kg 30 min later
Description: Male Sprague Dawley rats were studied at 9 and 10 weeks of age and were overnight fasted the night prior to study. The compound treated groups received a suspension of compound 1 at 10 mg/kg administered in 0.5% methyl cellulose with 0.1% Tween-80 at […]. Vehicle treated groups were dosed in a volume-matched manner with 0.5% methyl cellulose with 0.1% Tween-80. Vehicle and compounds were made up in a single batch the day before the start of each study. Orlistat was administered as a suspension in 0.5% methyl cellulose with 0.1% Tween-80 at 4 mL/kg. Intralipid was used as a high fat meal. Triton WR-1339 (10% weight: weight) was dissolved in normal saline and dosed at 100 mg/kg (i.v.) at a volume of 1 mL/kg. A baseline blood sample was collected by tail nick into ethylenediaminetetraacetic acid-lined tubes (Sarstedt, Nümbrecht, Germany) immediately prior to administering compounds (between 0830 and 0900 hrs). Rats were gavaged with drug or vehicle (4 mL/kg) beginning at 0830 hrs. Thirty minutes later, Intralipid was gavaged at 10 mL/kg to all rats, representing t=−30 min. Again, thirty minutes later, representing time=0 min, all rats were dosed via tail vein with Triton WR-1339 (100 mg/kg and 1 mL/kg) in normal saline. Blood samples were taken at −30 minutes (immediately prior to Intralipid/water dosing), −15 minutes, 0 minutes (immediately prior to Triton WR-1339 administration), as well as at 30, 60, 90, 120, and 240 minutes following administration of Triton WR-1339. Blood samples remained on ice following collection for no longer than 30 min prior to centrifugation. Following centrifugation (10 min, 4° C., 1000×g), plasma was aliquoted for plasma TG analysis. Data are reported as means±SEM. Repeated measures two-way ANOVA was used to assess the significance of the treatment by time interaction in plasma TGs followed by Tukey's post-hoc test to compare differences among the groups. Significance was set at P<0.05 and represented as asterisks in FIG. 3.

FCS (Type I) patients = test: Open-label clinical study, fasting and postprandial (MTT) triglycerides in FCS patients; assay type: in vivo, human
Description: (§1) An open-label, multiple-dose, parallel group clinical study is carried out to assess the safety, tolerability, pharmacokinetics and pharmacodynamics of compound 1 in twelve patients with chylomicronemia (six with FCS and six with Type V).
(§2) The safety and tolerability of multiple doses of Compound 1 in patients with chylomicronemia (both FCS and Type V), and the effect of oral Compound 1 on fasting and postprandial plasma triglycerides in the study population are determined using the following method.
(§3) The clinical study is an open-label, out-patient parallel group study to assess the safety, tolerability, pharmacokinetics and pharmacodynamics of Compound 1 administered once daily for 21 days in patients with chylomicronemia (both FCS and Type V). Six patients of each phenotype are enrolled and treated with Compound 1 at 20 mg per day for 21 days. Following a screening period of up to 90 days, eligible patients undergo a 7-day baseline period, a 21-day treatment period, a 14-day follow-up period after last treatment day and a study completion evaluation.
(§4) The enrolling criteria for Type V patients is a screening baseline of greater than or equal to 1000 mg/dL fasting triglycerides (TG), and a documented history of heterozygous lipoprotein lipase deficiency. The enrolling criteria for familial chylomicronemia syndrome (FCS) patients is a screening baseline of greater than or equal to 1000 mg/dL fasting triglycerides, and a documented history of homozygous lipoprotein lipase deficiency.
(§5) Patients are seen at a screening visit, and, if found to meet enrollment criteria, are enrolled in the study. At this time they are given instructions to adhere to a very low fat diet (<15 g/day) during the duration of the study, as is the standard of care for this population. Patients are also provided with three days' worth of standardized very low fat meals that are consumed for the three days prior to baseline evaluation (Day—4, Day—3, & Day—2)
(§6) Patients arrive at the study site on Day—1 early morning after an overnight fast for a meal tolerance test (MTT) to evaluate baseline postprandial triglyceride (TG) response. The MTT is a liquid meal of approximately 700 kcal, being 13% fat, 65% carbohydrates and 22% protein. Before the MTT, and at hourly time points through 9 hours, blood samples are taken for triglyceride and other metabolic measurements. Patients are discharged after completing this assessment and return to the study site next morning (Day 1) for a blood collection approximately 24 hours post meal, before the first dose of the study drug (Compound 1 tablets) is administered.
(§7) On the morning of Day 1, patients receive the first dose of Compound 1 at the clinic site. The drug supply for remainder of the 21-day treatment period is provided to the patients, who are instructed to take the drug orally once daily approximately one hour before breakfast for 21 days. Patients are also instructed to continue adherance to a very low fat diet. Patients are then released to home.
(§8) Patients report to the study site once weekly during the treatment period for safety and pharmacokinetics assessment, drug accountability and reviewing the meal plan and food diary. Additionally, the site staff contacts patients by phone, at least once between the clinic visits to check patients' wellbeing and monitor compliance with drug administration and low-fat meals instructions.
(§9) Patients are given pre-prepared very low-fat meals again that are consumed on Day 18, 19 & 20. Patients return to the study site on Day 21 early morning after an overnight fast for a second test meal (MTT) and frequent blood samples collection to evaluate postprandial TG response. Following the MTT and associated Day 21 assessments, patients are discharged to home. They return on the morning of Day 22 for a 24 h blood sample for triglycerides.

Type V patients = test: Open-label clinical study, fasting and postprandial (MTT) triglycerides in Type V patients; assay type: in vivo, human
Description: as §1, §2, §3, §4, §5, §6, §7, §8, §9

[1] = tested on: patients with chylomicronemia (both FCS and Type V); test: Open-label clinical study, safety and tolerability and overall triglyceride effect in patients with chylomicronemia (FCS and Type V); assay type: in vivo
Description: as §1, §2, §3
The enrolling criteria for Type V patients is a screening baseline of greater than or equal to 1000 mg/dL fasting triglycerides (TG), and a documented history of heterozygous lipoprotein lipase deficiency. […]

[2] = Type I (FCS) patients, n = 6, 20 mg per day oral for 21 days, MTT
[3] = Type I (FCS) patients, n = 6, MTT before treatment
[4] = n = 6, 20 mg per day oral for 21 days, MTT

O=C([O-])C[C@H]1CC[C@H](c2ccc(-c3ccc(Nc4ccc(C(F)(F)F)nc4)cn3)cc2)CC1.[Na+] [Compound 1, trans-4-[4-[5-[[6-(trifluoromethyl)-3-pyridinyl]amino]-2-pyridinyl]phenyl]cyclohexane acetic acid, sodium salt]
Plasma TG at 2 hrs (STZ rats): 494.5 ± 54.2 mg/dL | Plasma TG at 4 hrs (STZ rats): 461.5 ± 52.5 mg/dL | Plasma TGs at 4 hrs compared between groups (STZ rats; 10 mpk oral): did not differ | Plasma TGs at 2 hrs compared to vehicle and orlistat groups (STZ rats; 10 mpk oral, P≦0.001): significantly lower | Pre-dose TG (STZ rats): 346.1 ± 49.6 mg/dL | Blunting an increase in plasma triglycerides (STZ rats; model of severe hypertriglyceridemia): effective | Plasma TG at 90 min (Triton rat): 290.2 ± 89.7 mg/dL | Plasma TG at 120 min (Triton rat): 479.3 ± 123.4 mg/dL | Pre-Triton TG (Triton rat): 35.6 ± 5.6 mg/dL | Rate of absorption of triglycerides arising from a high fat meal (Triton rat; conclusion from Triton rat data): suppresses | Plasma TG appearance compared to vehicle and orlistat treatments (Triton rat; following Intralipid bolus, at 90 and 120 minutes post Triton WR-1339, P≦0.05): significantly decreased | Fasting TG, Mean Δ from Baseline (FCS (Type I) patients; Type I (FCS) patients, n = 6, 20 mg per day oral for 21 days): −38.4% | Postprandial Peak TG, Mean Δ from Baseline (FCS (Type I) patients; [2]): −36.4% | Postprandial TG AUC0-9, Mean Δ from Baseline (FCS (Type I) patients; [2]): −35.4% | Postprandial Peak TG, Mean Baseline (FCS (Type I) patients; [3]): 1913.1 mg/dL | Postprandial TG AUC0-9, Mean Baseline (FCS (Type I) patients; [3]): 15044.5 mg·h/dL | Fasting TG, Mean Baseline (FCS (Type I) patients; Type I (FCS) patients, n = 6, before treatment): 1968.0 mg/dL | Fasting triglycerides decreased by (FCS (Type I) patients; patients with FCS, 20 mg daily for 3 weeks): 38.4% | Postprandial triglycerides (FCS (Type I) patients; patients with FCS, 20 mg daily for 3 weeks, relative to fasting TG decrease): reduced by a similar magnitude | Triglyceride levels decreased by (FCS (Type I) patients; patients with FCS, to near the threshold for increased pancreatitis risk (about 1000 mg/dL)): about 40% | Fasting triglycerides decreased by (Type V patients; 20 mg daily for 3 weeks): 23.6% | Triglyceride levels relative to the threshold for increased pancreatitis risk (about 1000 mg/dL) (Type V patients; 20 mg daily for 3 weeks): kept well below the threshold | Postprandial triglycerides (Type V patients; 20 mg daily for 3 weeks, relative to fasting TG decrease): reduced by a similar magnitude | Fasting TG, Mean Δ from Baseline (Type V patients; n = 6, 20 mg per day oral for 21 days): −23.6% | Postprandial Peak TG, Mean Δ from Baseline (Type V patients; [4]): −25.8% | Postprandial TG AUC0-9, Mean Δ from Baseline (Type V patients; [4]): −27.3% | Postprandial Peak TG, Mean Baseline (Type V patients; n = 6, MTT before treatment): 835.2 mg/dL | Postprandial TG AUC0-9, Mean Baseline (Type V patients; n = 6, MTT before treatment): 6873.0 mg·h/dL | Fasting TG, Mean Baseline (Type V patients; n = 6, before treatment): 745.8 mg/dL | Safety and tolerability ([1]; all 12 patients, 20 mg daily for 3 weeks): safe and well tolerated | Triglyceride levels after 3 weeks of treatment ([1]; both groups of patients (FCS and Type V), 20 mg daily): decreased

CCCCCCCCCCC[C@@H](C[C@@H]1OC(=O)[C@H]1CCCCCC)OC(=O)[C@H](CC(C)C)NC=O [Orlistat, reference compound]
Plasma TG at 2 hrs (STZ rats): 891.8 ± 97.8 mg/dL | Plasma TG at 4 hrs (STZ rats): 236.3 ± 37.9 mg/dL | Plasma TGs at 4 hrs compared between groups (STZ rats; 10 mpk oral): lower than the other 2 groups | Pre-dose TG (STZ rats): 288.4 ± 27.4 mg/dL | Plasma TG at 90 min (Triton rat): 747.3 ± 203.7 mg/dL | Plasma TG at 120 min (Triton rat): 984.9 ± 251.7 mg/dL | Pre-Triton TG (Triton rat): 114.5 ± 13.0 mg/dL
